Where two headings read alike, the source gives them in different places.
How the values were obtained:
SK-MEL-28 = test: cells; settings: Homo sapiens
T-47D = settings: for Mean Optical Densities / Percent Growth: T-47D
[1] = UO-31, log10 concentration −4.0
[2] = UO-31, log10 concentration −5.0
[3] = UO-31, log10 concentration −6.0
[4] = UO-31, log10 concentration −7.0
[5] = UO-31, log10 concentration −8.0
[6] = SF-539, log10 concentration −4.0
[7] = SF-539, log10 concentration −5.0
[8] = SF-539, log10 concentration −6.0
[9] = SF-539, log10 concentration −7.0
[10] = SF-539, log10 concentration −8.0
[11] = OVCAR-3, log10 concentration −4.0
[12] = OVCAR-3, log10 concentration −5.0
[13] = OVCAR-3, log10 concentration −6.0
[14] = OVCAR-3, log10 concentration −7.0
[15] = OVCAR-3, log10 concentration −8.0
[16] = SNB-19, log10 concentration −4.0
[17] = SNB-19, log10 concentration −5.0
[18] = SNB-19, log10 concentration −6.0
[19] = SNB-19, log10 concentration −7.0
[20] = SNB-19, log10 concentration −8.0
[21] = 786-0, log10 concentration −4.0
[22] = 786-0, log10 concentration −5.0
[23] = 786-0, log10 concentration −6.0
[24] = 786-0, log10 concentration −7.0
[25] = 786-0, log10 concentration −8.0
[26] = NCI-H460, log10 concentration −4.0
[27] = NCI-H460, log10 concentration −5.0
[28] = NCI-H460, log10 concentration −6.0
[29] = NCI-H460, log10 concentration −7.0
[30] = NCI-H460, log10 concentration −8.0
[31] = K-562, log10 concentration −4.0
[32] = K-562, log10 concentration −5.0
[33] = K-562, log10 concentration −6.0
[34] = K-562, log10 concentration −7.0
[35] = K-562, log10 concentration −8.0
[36] = DU-145, log10 concentration −4.0
[37] = DU-145, log10 concentration −5.0
[38] = DU-145, log10 concentration −6.0
[39] = DU-145, log10 concentration −7.0
[40] = DU-145, log10 concentration −8.0

Question: Which results are given for `CC(C)c1cnn2c(NCc3ccccc3)cc(N[C@@H](CO)[C@H](O)CO)nc12` [ICEC0318, (3S)-3-(7-(Benzylamino)-3-isopropylpyrazolo[1,5-a]pyrimidin-5-ylamino)butane-1,2,4-triol]?
Answer: TGI (UO-31; UO-31 (Renal Cancer)): 2.07E−5; Mean Optical Densities (UO-31; [1]): 0.522; Percent Growth (UO-31; [1]): −4%; Mean Optical Densities (UO-31; [2]): 0.557; Percent Growth (UO-31; [2]): 2%; Mean Optical Densities (UO-31; [3]): 0.578; Percent Growth (UO-31; [3]): 4%; Mean Optical Densities (UO-31; [4]): 1.371; Percent Growth (UO-31; [4]): 89%; Mean Optical Densities (UO-31; [5]): 1.378; Percent Growth (UO-31; [5]): 90%; TGI (SF-539; SF-539 (CNS Cancer)): 5.81E−7; Mean Optical Densities (SF-539; [6]): 0.138; Percent Growth (SF-539; [6]): −81%; Mean Optical Densities (SF-539; [7]): 0.327; Percent Growth (SF-539; [7]): −55%; Mean Optical Densities (SF-539; [8]): 0.540; Percent Growth (SF-539; [8]): −25%; Mean Optical Densities (SF-539; [9]): 1.950; Percent Growth (SF-539; [9]): 82%; Mean Optical Densities (SF-539; [10]): 2.183; Percent Growth (SF-539; [10]): 98%; GI50 (OVCAR-3; Homo sapiens, OVCAR-3): 335 nM; CC50 (OVCAR-3; Homo sapiens, OVCAR-3, read-out: LC50): > 100 µM; TGI (OVCAR-3; OVCAR-3 (Ovarian Cancer)): >1.00E−4; Mean Optical Densities (OVCAR-3; [11]): 0.313; Percent Growth (OVCAR-3; [11]): 9%; Mean Optical Densities (OVCAR-3; [12]): 0.317; Percent Growth (OVCAR-3; [12]): 10%; Mean Optical Densities (OVCAR-3; [13]): 0.306; Percent Growth (OVCAR-3; [13]): 8%; Mean Optical Densities (OVCAR-3; [14]): 0.700; Percent Growth (OVCAR-3; [14]): 97%; Mean Optical Densities (OVCAR-3; [15]): 0.795; Percent Growth (OVCAR-3; [15]): 118%; TGI (SNB-19; SNB-19 (CNS Cancer)): 4.89E−5; Mean Optical Densities (SNB-19; [16]): 0.492; Percent Growth (SNB-19; [16]): −2%; Mean Optical Densities (SNB-19; [17]): 0.537; Percent Growth (SNB-19; [17]): 4%; Mean Optical Densities (SNB-19; [18]): 0.580; Percent Growth (SNB-19; [18]): 9%; Mean Optical Densities (SNB-19; [19]): 1.247; Percent Growth (SNB-19; [19]): 84%; Mean Optical Densities (SNB-19; [20]): 1.309; Percent Growth (SNB-19; [20]): 91%; TGI (786-0; 786-0 (Renal Cancer)): 8.99E−7; Mean Optical Densities (786-0; [21]): 0.491; Percent Growth (786-0; [21]): −21%; Mean Optical Densities (786-0; [22]): 0.598; Percent Growth (786-0; [22]): −4%; Mean Optical Densities (786-0; [23]): 0.592; Percent Growth (786-0; [23]): −5%; Mean Optical Densities (786-0; [24]): 1.769; Percent Growth (786-0; [24]): 98%; Mean Optical Densities (786-0; [25]): 1.824; Percent Growth (786-0; [25]): 103%; GI50 (786-0; Homo sapiens, 786-0): 293 nM; CC50 (786-0; Homo sapiens, 786-0, read-out: LC50): > 100 µM; TGI (KM12; KM12 (Colon Cancer)): >1.00E−4; Mean Optical Densities (KM12; KM12, log10 concentration −4.0): 0.305; Percent Growth (KM12; KM12, log10 concentration −4.0): 10%; Mean Optical Densities (KM12; KM12, log10 concentration −5.0): 0.304; Percent Growth (KM12; KM12, log10 concentration −5.0): 10%; Mean Optical Densities (KM12; KM12, log10 concentration −6.0): 0.318; Percent Growth (KM12; KM12, log10 concentration −6.0): 12%; Mean Optical Densities (KM12; KM12, log10 concentration −7.0): 0.802; Percent Growth (KM12; KM12, log10 concentration −7.0): 80%; Mean Optical Densities (KM12; KM12, log10 concentration −8.0): 1.036; Percent Growth (KM12; KM12, log10 concentration −8.0): 113%; TGI (NCI-H460; NCI-H460 (Non-Small Cell Lung Cancer)): 1.71E−5; Mean Optical Densities (NCI-H460; [26]): 0.094; Percent Growth (NCI-H460; [26]): −15%; Mean Optical Densities (NCI-H460; [27]): 0.158; Percent Growth (NCI-H460; [27]): 5%; Mean Optical Densities (NCI-H460; [28]): 0.181; Percent Growth (NCI-H460; [28]): 7%; Mean Optical Densities (NCI-H460; [29]): 0.919; Percent Growth (NCI-H460; [29]): 80%; Mean Optical Densities (NCI-H460; [30]): 1.138; Percent Growth (NCI-H460; [30]): 102%; TGI (MCF7; MCF7 (Breast Cancer)): >1.00E−4; Mean Optical Densities (MCF7; MCF7, log10 concentration −4.0): 0.229; Percent Growth (MCF7; MCF7, log10 concentration −4.0): 6%; Mean Optical Densities (MCF7; MCF7, log10 concentration −5.0): 0.237; Percent Growth (MCF7; MCF7, log10 concentration −5.0): 7%; Mean Optical Densities (MCF7; MCF7, log10 concentration −6.0): 0.244; Percent Growth (MCF7; MCF7, log10 concentration −6.0): 7%; Mean Optical Densities (MCF7; MCF7, log10 concentration −7.0): 0.805; Percent Growth (MCF7; MCF7, log10 concentration −7.0): 72%; Mean Optical Densities (MCF7; MCF7, log10 concentration −8.0): 1.098; Percent Growth (MCF7; MCF7, log10 concentration −8.0): 107%; GI50 (SK-MEL-28; SK-MEL-28): 245 nM; CC50 (SK-MEL-28; SK-MEL-28, read-out: LC50): 37.1 µM; TGI (PC-3; PC-3 (Prostate Cancer)): >1.00E−4; Mean Optical Densities (PC-3; PC-3, log10 concentration −4.0): 0.173; Percent Growth (PC-3; PC-3, log10 concentration −4.0): 2%; Mean Optical Densities (PC-3; PC-3, log10 concentration −5.0): 0.200; Percent Growth (PC-3; PC-3, log10 concentration −5.0): 9%; Mean Optical Densities (PC-3; PC-3, log10 concentration −6.0): 0.218; Percent Growth (PC-3; PC-3, log10 concentration −6.0): 14%; Mean Optical Densities (PC-3; PC-3, log10 concentration −7.0): 0.486; Percent Growth (PC-3; PC-3, log10 concentration −7.0): 85%; Mean Optical Densities (PC-3; PC-3, log10 concentration −8.0): 0.532; Percent Growth (PC-3; PC-3, log10 concentration −8.0): 97%; TGI (T-47D; T-47D (Breast Cancer)): 2.55E−6; Mean Optical Densities (T-47D; log10 concentration −4.0): 0.479; Percent Growth (T-47D; log10 concentration −4.0): −12%; Mean Optical Densities (T-47D; log10 concentration −5.0): 0.516; Percent Growth (T-47D; log10 concentration −5.0): −5%; Mean Optical Densities (T-47D; log10 concentration −6.0): 0.565; Percent Growth (T-47D; log10 concentration −6.0): 3%; Mean Optical Densities (T-47D; log10 concentration −7.0): 1.199; Percent Growth (T-47D; log10 concentration −7.0): 94%; Mean Optical Densities (T-47D; log10 concentration −8.0): 1.266; Percent Growth (T-47D; log10 concentration −8.0): 103%; TGI (K-562; K-562 (Leukemia)): >1.00E−4; Mean Optical Densities (K-562; [31]): 0.341; Percent Growth (K-562; [31]): 17%; Mean Optical Densities (K-562; [32]): 0.325; Percent Growth (K-562; [32]): 15%; Mean Optical Densities (K-562; [33]): 0.334; Percent Growth (K-562; [33]): 16%; Mean Optical Densities (K-562; [34]): 0.991; Percent Growth (K-562; [34]): 79%; Mean Optical Densities (K-562; [35]): 1.064; Percent Growth (K-562; [35]): 86%; TGI (DU-145; DU-145 (Prostate Cancer)): >1.00E−4; Mean Optical Densities (DU-145; [36]): 0.204; Percent Growth (DU-145; [36]): 3%; Mean Optical Densities (DU-145; [37]): 0.250; Percent Growth (DU-145; [37]): 12%; Mean Optical Densities (DU-145; [38]): 0.277; Percent Growth (DU-145; [38]): 17%; Mean Optical Densities (DU-145; [39]): 0.688; Percent Growth (DU-145; [39]): 95%; Mean Optical Densities (DU-145; [40]): 0.732; Percent Growth (DU-145; [40]): 103%
